In US10189845B2, “4,6-substituted-pyrazolo[1,5-a]pyrazines as janus kinase inhibitors” (ARRAY BIOPHARMA INC., priority 2014, dated 2019):
pIC50: −log10 of the molar value. Like-named read-outs stand apart in the source and are kept apart here.

Key:
Type in all cases: biochemical
[1] = molecular target: Human Tyk2 kinase domain (Homo sapiens (Human), UniProt P29597); test: Tyk2 Inhibition Assay (Example A, Omnia kinase fluorescence peptide substrate assay); conditions: TYK2 Enzyme IC50 1 mM ATP, averaged IC50 ranges
Human Tyk2 kinase domain, sequence (P29597 886-1187): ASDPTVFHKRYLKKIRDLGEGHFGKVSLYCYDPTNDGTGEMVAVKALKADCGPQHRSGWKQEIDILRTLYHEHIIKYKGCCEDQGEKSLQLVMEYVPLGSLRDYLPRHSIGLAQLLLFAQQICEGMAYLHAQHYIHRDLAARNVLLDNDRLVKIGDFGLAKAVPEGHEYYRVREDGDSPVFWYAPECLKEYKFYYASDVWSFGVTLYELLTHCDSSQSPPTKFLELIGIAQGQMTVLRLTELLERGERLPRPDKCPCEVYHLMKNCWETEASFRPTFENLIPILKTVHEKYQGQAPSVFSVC
In short: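 IC50 values come from a 4-parameter logistic fit of percent-of-control data, with compounds at 2% final DMSO. Reactions held 1 nM His-tag-cleaved Tyk2 (aa 886–1187), 8 μM Omnia Y12 peptide and 1 mM ATP in pH 7.4 HEPES buffer with 10 mM MgCl2, Triton X-100 and DTT. Sox fluorescence (360/485 nm) was monitored kinetically over 45 min.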

[2] = molecular target: JAK1 (Homo sapiens (Human), UniProt P23458); test: JAK1 Inhibition Assay (Example B, Omnia kinase fluorescence peptide substrate assay)
JAK1, sequence (P23458 whole entry): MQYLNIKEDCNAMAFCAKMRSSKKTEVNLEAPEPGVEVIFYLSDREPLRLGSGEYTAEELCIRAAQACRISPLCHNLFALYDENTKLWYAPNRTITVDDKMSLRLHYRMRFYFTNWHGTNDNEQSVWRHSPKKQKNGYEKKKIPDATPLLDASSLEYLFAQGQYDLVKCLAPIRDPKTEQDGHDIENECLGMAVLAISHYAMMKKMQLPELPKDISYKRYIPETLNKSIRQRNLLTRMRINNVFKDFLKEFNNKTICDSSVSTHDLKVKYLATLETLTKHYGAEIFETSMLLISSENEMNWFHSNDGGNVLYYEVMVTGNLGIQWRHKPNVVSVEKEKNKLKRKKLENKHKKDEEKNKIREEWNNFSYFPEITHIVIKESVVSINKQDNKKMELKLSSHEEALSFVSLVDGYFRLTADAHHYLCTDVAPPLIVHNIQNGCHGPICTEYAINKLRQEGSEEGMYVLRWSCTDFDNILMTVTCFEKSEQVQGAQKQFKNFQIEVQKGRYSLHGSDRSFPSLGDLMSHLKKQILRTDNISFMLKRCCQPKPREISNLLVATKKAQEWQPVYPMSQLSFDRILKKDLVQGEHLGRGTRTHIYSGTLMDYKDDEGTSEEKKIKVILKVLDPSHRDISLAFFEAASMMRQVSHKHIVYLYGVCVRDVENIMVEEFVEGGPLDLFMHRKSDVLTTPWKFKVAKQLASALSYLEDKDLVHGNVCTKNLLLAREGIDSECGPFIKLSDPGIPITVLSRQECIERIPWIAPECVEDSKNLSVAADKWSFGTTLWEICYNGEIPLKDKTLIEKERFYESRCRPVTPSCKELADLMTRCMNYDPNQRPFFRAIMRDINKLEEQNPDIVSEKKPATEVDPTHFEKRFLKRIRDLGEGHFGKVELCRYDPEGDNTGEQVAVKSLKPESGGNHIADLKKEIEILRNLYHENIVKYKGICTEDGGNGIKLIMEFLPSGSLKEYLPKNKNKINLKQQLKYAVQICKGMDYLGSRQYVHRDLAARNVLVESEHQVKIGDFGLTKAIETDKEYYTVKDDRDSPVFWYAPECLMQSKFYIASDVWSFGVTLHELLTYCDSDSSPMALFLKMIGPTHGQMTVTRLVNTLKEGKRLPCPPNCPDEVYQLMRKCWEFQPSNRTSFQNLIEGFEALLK
In short: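 Kinetic fluorescence read (360 nm excitation, 485 nm emission, every 50 s over 45 min) of Omnia Y12 peptide (8 μM) phosphorylation by 12.5 nM human JAK1 at 1 mM ATP. Buffer: HEPES pH 7.4, MgCl2, Triton X-100, DTT; 2% DMSO. IC50 = concentration giving 50 POC on logistic curve.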

[3] = molecular target: JAK2 (Homo sapiens (Human), UniProt O60674); test: JAK2 Inhibition Assay (Example C, Omnia kinase fluorescence peptide substrate assay); conditions: JAK2 Enzyme IC50 1 mM ATP, averaged IC50 ranges
JAK2, sequence (O60674 whole entry): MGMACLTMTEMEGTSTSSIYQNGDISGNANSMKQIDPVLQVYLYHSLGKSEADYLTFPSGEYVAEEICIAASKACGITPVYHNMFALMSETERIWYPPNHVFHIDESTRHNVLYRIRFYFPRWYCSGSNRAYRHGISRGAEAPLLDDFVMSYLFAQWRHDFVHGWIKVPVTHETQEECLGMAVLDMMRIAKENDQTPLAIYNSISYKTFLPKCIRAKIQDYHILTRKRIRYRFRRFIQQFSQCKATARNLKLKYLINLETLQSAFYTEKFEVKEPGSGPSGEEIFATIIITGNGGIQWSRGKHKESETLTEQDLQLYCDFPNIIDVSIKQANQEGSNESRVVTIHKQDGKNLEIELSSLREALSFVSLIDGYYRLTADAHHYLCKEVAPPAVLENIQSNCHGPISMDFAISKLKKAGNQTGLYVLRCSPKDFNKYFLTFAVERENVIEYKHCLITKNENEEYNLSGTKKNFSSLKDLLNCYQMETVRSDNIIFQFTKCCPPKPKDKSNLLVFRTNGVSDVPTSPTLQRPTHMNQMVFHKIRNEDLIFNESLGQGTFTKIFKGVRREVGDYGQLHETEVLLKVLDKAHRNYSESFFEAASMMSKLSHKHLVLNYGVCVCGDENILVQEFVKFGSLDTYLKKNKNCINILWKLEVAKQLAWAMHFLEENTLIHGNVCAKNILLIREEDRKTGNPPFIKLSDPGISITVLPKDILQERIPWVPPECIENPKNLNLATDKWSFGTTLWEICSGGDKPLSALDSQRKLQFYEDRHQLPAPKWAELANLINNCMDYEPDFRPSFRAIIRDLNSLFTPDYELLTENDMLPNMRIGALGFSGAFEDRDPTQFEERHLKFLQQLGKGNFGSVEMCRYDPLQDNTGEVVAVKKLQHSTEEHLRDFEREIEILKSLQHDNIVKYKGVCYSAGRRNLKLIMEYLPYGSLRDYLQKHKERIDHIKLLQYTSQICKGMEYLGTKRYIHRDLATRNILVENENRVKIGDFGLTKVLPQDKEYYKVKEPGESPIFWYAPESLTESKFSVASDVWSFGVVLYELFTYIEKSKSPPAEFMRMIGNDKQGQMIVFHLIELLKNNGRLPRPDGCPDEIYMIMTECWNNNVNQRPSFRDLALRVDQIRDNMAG
In short: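 Kinetic fluorescence read of Omnia Y7 peptide (10 μM) phosphorylation, ex 360/em 485 nm every 50 s over 45 min, by 4 nM JAK2 at 1 mM ATP. Buffer 25 mM HEPES pH 7.4, 10 mM MgCl2, 0.01% Triton X-100, 1 mM DTT; final DMSO 2%. Percent-of-control values fitted by 4-parameter logistic for IC50.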

[4] = molecular target: JAK3 (Homo sapiens (Human), UniProt P52333); test: JAK3 Inhibition Assay (Example D, Omnia kinase fluorescence peptide substrate assay)
JAK3, sequence (P52333 whole entry): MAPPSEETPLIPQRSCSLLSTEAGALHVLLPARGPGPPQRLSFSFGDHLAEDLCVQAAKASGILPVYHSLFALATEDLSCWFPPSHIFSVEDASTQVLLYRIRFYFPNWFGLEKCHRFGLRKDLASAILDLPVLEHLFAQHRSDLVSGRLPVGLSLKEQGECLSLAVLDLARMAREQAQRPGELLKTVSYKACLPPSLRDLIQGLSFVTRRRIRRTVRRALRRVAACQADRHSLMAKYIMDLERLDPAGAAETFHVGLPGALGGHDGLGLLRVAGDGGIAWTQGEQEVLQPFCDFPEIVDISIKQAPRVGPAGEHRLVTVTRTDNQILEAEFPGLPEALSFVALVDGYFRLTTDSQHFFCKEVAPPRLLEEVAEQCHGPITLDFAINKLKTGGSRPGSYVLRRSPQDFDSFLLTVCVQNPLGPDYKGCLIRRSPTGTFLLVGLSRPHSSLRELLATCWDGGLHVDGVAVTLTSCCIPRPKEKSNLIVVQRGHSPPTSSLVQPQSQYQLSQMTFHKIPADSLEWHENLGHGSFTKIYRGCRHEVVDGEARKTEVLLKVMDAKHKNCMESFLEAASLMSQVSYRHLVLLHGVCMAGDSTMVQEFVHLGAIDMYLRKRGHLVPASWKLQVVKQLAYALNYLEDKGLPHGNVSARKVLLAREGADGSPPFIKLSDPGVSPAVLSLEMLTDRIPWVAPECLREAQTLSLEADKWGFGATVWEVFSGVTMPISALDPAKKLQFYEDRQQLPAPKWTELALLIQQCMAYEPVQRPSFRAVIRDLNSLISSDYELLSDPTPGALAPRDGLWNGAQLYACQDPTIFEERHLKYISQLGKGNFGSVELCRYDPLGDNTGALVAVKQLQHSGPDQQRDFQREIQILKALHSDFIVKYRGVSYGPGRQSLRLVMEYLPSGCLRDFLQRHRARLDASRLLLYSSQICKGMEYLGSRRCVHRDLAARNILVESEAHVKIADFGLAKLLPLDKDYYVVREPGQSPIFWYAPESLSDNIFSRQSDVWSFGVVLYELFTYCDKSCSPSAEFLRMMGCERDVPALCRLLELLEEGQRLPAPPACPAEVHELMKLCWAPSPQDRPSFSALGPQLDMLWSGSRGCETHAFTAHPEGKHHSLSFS
In short: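 Omnia Sox-peptide kinetic read (ex 360 nm, em 485 nm, every 50 s over 45 min) tracked phosphorylation of 10 μM Y7 peptide by 2 nM recombinant JAK3 at 1 mM ATP. Buffer: 25 mM HEPES pH 7.4, 10 mM MgCl2, 0.01% Triton X-100, 1 mM DTT, with 2% DMSO final.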

[5] = JAK1 Enzyme IC50 1 mM ATP, 1 mM ATP, averaged IC50 ranges

Row | SMILES | pIC50 [1] | pIC50 [2, 5] | pIC50 [3] | pIC50 [4] | pIC50 [2]
1 | CC[C@@H]1CCC[C@@H]1n1cc(-c2nc(-c3cnn(C[C@@H](O)CO)c3)cn3nccc23)cn1 (single isomer, unassigned) [Example 207] | 7.00 to 8.00 | 6.00 to 7.00 | > 8.00 | 6.00 to 7.00 | –
2 | CCC(CC)n1cc(-c2nc(-c3cnn(C(CO)CO)c3)cn3nccc23)cn1 [Example 81, 2-(4-(4-(1-(pentan-3-yl)-1H-pyrazol-4-yl)pyrazolo[1,5-a]pyrazin-6-yl)-1H-pyrazol-1-yl)propane-1,3-diol] | 7.00 to 8.00 | – | 7.00 to 8.00 | 5.00 to 6.00 | 6.00 to 7.00
3 | CCC(CC)n1cc(-c2nc(-c3cnn(C[C@@H](O)CNC)c3)cn3nccc23)cn1 [Example 102, (S)-1-(methylamino)-3-(4-(4-(1-(pentan-3-yl)-1H-pyrazol-4-yl)pyrazolo[1,5-a]pyrazin-6-yl)-1H-pyrazol-1-yl)propan-2-ol] | 6.00 to 7.00 | 5.00 to 6.00 | 7.00 to 8.00 | 5.00 to 6.00 | –
4 | CCC(CC)n1cc(-c2nc(-c3cnn(CC(O)C(C)C)c3)cn3nccc23)cn1 (centres unmarked) [Example 113, 3-methyl-1-(4-(4-(1-(pentan-3-yl)-1H-pyrazol-4-yl)pyrazolo[1,5-a]pyrazin-6-yl)-1H-pyrazol-1-yl)butan-2-ol] | 7.00 to 8.00 | – | 6.00 to 7.00 | 5.00 to 6.00 | 5.00 to 6.00
5 | CCC(CC)n1cc(-c2nc(-c3cnn(CCN4CC[C@H](O)C4)c3)cn3nccc23)cn1 [Example 141, (S)-1-(2-(4-(4-(1-(pentan-3-yl)-1H-pyrazol-4-yl)pyrazolo[1,5-a]pyrazin-6-yl)-1H-pyrazol-1-yl)ethyl)pyrrolidin-3-ol] | 7.00 to 8.00 | – | 7.00 to 8.00 | 5.00 to 6.00 | 5.00 to 6.00
6 | CCC(CC)n1cc(-c2nc(-c3cnn(C[C@@H](O)CN4CC(OC)C4)c3)cn3nccc23)cn1 [Example 104, (S)-1-(3-methoxyazetidin-1-yl)-3-(4-(4-(1-(pentan-3-yl)-1H-pyrazol-4-yl)pyrazolo[1,5-a]pyrazin-6-yl)-1H-pyrazol-1-yl)propan-2-ol] | 7.00 to 8.00 | 5.00 to 6.00 | 7.00 to 8.00 | 5.00 to 6.00 | –
7 | CC1(C)CCC[C@H]1n1cc(-c2nc(-c3cnn(C[C@@H](O)CO)c3)cn3nccc23)cn1 (single isomer, unassigned) [Example 96] | 5.00 to 6.00 | 5.00 to 6.00 | 6.00 to 7.00 | 5.00 to 6.00 | –
8 | CCC(CC)n1cc(-c2nc(-c3cnn(C[C@H]4CNCCO4)c3)cn3nccc23)cn1 [compound 128, (R)-2-((4-(4-(1-(pentan-3-yl)-1H-pyrazol-4-yl)pyrazolo[1,5-a]pyrazin-6-yl)-1H-pyrazol-1-yl)methyl)morpholine] | 6.00 to 7.00 | – | 6.00 to 7.00 | 5.00 to 6.00 | 5.00 to 6.00
9 | CCC(CC)n1cc(-c2nc(-c3cnn(C4CN(C(=O)CN5CCCC5)C4)c3)cn3nccc23)cn1 [Example 181, 1-(3-(4-(4-(1-(pentan-3-yl)-1H-pyrazol-4-yl)pyrazolo[1,5-a]pyrazin-6-yl)-1H-pyrazol-1-yl)azetidin-1-yl)-2-(pyrrolidin-1-yl)ethanone] | 7.00 to 8.00 | 6.00 to 7.00 | 7.00 to 8.00 | 5.00 to 6.00 | –
10 | CCC(CC)n1cc(-c2nc(-c3cnn(C4CN(C(=O)[C@H]5C[C@@H](O)C5)C4)c3)cn3nccc23)cn1 [Example 178, (cis-3-hydroxycyclobutyl)(3-(4-(4-(1-(pentan-3-yl)-1H-pyrazol-4-yl)pyrazolo[1,5-a]pyrazin-6-yl)-1H-pyrazol-1-yl)azetidin-1-yl)methanone] | 7.00 to 8.00 | – | 7.00 to 8.00 | 5.00 to 6.00 | 5.00 to 6.00
11 | CCC(CC)n1cc(-c2nc(-c3cnn(C4CN(C(=O)[C@@H](C)O)C4)c3)cn3nccc23)cn1 [Example 175, (R)-2-hydroxy-1-(3-(4-(4-(1-(pentan-3-yl)-1H-pyrazol-4-yl)pyrazolo[1,5-a]pyrazin-6-yl)-1H-pyrazol-1-yl)azetidin-1-yl)propan-1-one] | 6.00 to 7.00 | – | 7.00 to 8.00 | 5.00 to 6.00 | 5.00 to 6.00
12 | CCC(CC)n1cc(-c2nc(-c3cnn([C@H]4C[C@H](O)C4)c3)cn3nccc23)cn1 [Example 161, trans-3-(4-(4-(1-(pentan-3-yl)-1H-pyrazol-4-yl)pyrazolo[1,5-a]pyrazin-6-yl)-1H-pyrazol-1-yl)cyclobutanol] | 7.00 to 8.00 | 6.00 to 7.00 | 7.00 to 8.00 | 5.00 to 6.00 | –
13 | CCC(CC)n1cc(-c2nc(-c3cnn(CCN(C)S(C)(=O)=O)c3)cn3nccc23)cn1 [Example 9, N-methyl-N-(2-(4-(4-(1-(pentan-3-yl)-1H-pyrazol-4-yl)pyrazolo[1,5-a]pyrazin-6-yl)-1H-pyrazol-1-yl)ethyl)methanesulfonamide] | 7.00 to 8.00 | 6.00 to 7.00 | 7.00 to 8.00 | 5.00 to 6.00 | –
14 | CCC(CC)n1cc(-c2nc(-c3cnn(CCN4CC[C@H](OC)C4)c3)cn3nccc23)cn1 [Example 137, (S)-6-(1-(2-(3-methoxypyrrolidin-1-yl)ethyl)-1H-pyrazol-4-yl)-4-(1-(pentan-3-yl)-1H-pyrazol-4-yl)pyrazolo[1,5-a]pyrazine] | 7.00 to 8.00 | – | 7.00 to 8.00 | 5.00 to 6.00 | 6.00 to 7.00
15 | CCC(CC)n1cc(-c2nc(-c3cnn(C4CN(C(=O)C(C)C)C4)c3)cn3nccc23)cn1 [Example 42, 2-methyl-1-(3-(4-(4-(1-(pentan-3-yl)-1H-pyrazol-4-yl)pyrazolo[1,5-a]pyrazin-6-yl)-1H-pyrazol-1-yl)azetidin-1-yl)propan-1-one] | 7.00 to 8.00 | – | 7.00 to 8.00 | 5.00 to 6.00 | 5.00 to 6.00
16 | CCC(CC)n1cc(-c2nc(-c3cnn(C[C@H](C)O)c3)cn3nccc23)cn1 [Example 110, (S)-1-(4-(4-(1-(pentan-3-yl)-1H-pyrazol-4-yl)pyrazolo[1,5-a]pyrazin-6-yl)-1H-pyrazol-1-yl)propan-2-ol] | 7.00 to 8.00 | – | 7.00 to 8.00 | 5.00 to 6.00 | 6.00 to 7.00
17 | CC[C@H](C1CC1)n1cc(-c2nc(-c3cnn(C(CO)CO)c3)cn3nccc23)cn1 [Example 215, (R)-2-(4-(4-(1-(1-cyclopropylpropyl)-1H-pyrazol-4-yl)pyrazolo[1,5-a]pyrazin-6-yl)-1H-pyrazol-1-yl)propane-1,3-diol] | 7.00 to 8.00 | 6.00 to 7.00 | 7.00 to 8.00 | 5.00 to 6.00 | –
18 | CCC(CC)n1cc(-c2nc(-c3cnn(C[C@H](C)CO)c3)cn3nccc23)cn1 [Example 15, (S)-2-methyl-3-(4-(4-(1-(pentan-3-yl)-1H-pyrazol-4-yl)pyrazolo[1,5-a]pyrazin-6-yl)-1H-pyrazol-1-yl)propan-1-ol] | 7.00 to 8.00 | 7.00 to 8.00 | 7.00 to 8.00 | 5.00 to 6.00 | –
19 | CCC(CC)n1cc(-c2nc(-c3cnn([C@H]4C[C@H](C(N)=O)C4)c3)cn3nccc23)cn1 [Example 167, (1r,3r)-3-(4-(4-(1-(pentan-3-yl)-1H-pyrazol-4-yl)pyrazolo[1,5-a]pyrazin-6-yl)-1H-pyrazol-1-yl)cyclobutanecarboxamide] | 7.00 to 8.00 | – | 7.00 to 8.00 | 5.00 to 6.00 | 6.00 to 7.00
20 | CCC(CC)n1cc(-c2nc(-c3cnn([C@H]4C[C@@H](CO)C4)c3)cn3nccc23)cn1 [compound 166, (cis-3-(4-(4-(1-(pentan-3-yl)-1H-pyrazol-4-yl)pyrazolo[1,5-a]pyrazin-6-yl)-1H-pyrazol-1-yl)cyclobutyl)methanol] | 7.00 to 8.00 | – | 7.00 to 8.00 | 5.00 to 6.00 | 6.00 to 7.00
21 | CCC(CC)n1cc(-c2nc(-c3cnn(CC(O)CO)c3)cn3nccc23)cn1 (centres unmarked) [Example 58, 3-(4-(4-(1-(pentan-3-yl)-1H-pyrazol-4-yl)pyrazolo[1,5-a]pyrazin-6-yl)-1H-pyrazol-1-yl)propane-1,2-diol] | 7.00 to 8.00 | 6.00 to 7.00 | 7.00 to 8.00 | 5.00 to 6.00 | –
22 | CCC(CC)n1cc(-c2nc(-c3cnn(C4CCN(C(=O)N(C)C)CC4)c3)cn3nccc23)cn1 [Example 35, N,N-dimethyl-4-(4-(4-(1-(pentan-3-yl)-1H-pyrazol-4-yl)pyrazolo[1,5-a]pyrazin-6-yl)-1H-pyrazol-1-yl)piperidine-1-carboxamide] | 7.00 to 8.00 | – | 7.00 to 8.00 | 5.00 to 6.00 | 6.00 to 7.00
23 | CCC(CC)n1cc(-c2nc(-c3cnn(CC4(O)CCNCC4)c3)cn3nccc23)cn1 [Example 184, 4-((4-(4-(1-(pentan-3-yl)-1H-pyrazol-4-yl)pyrazolo[1,5-a]pyrazin-6-yl)-1H-pyrazol-1-yl)methyl)piperidin-4-ol] | 6.00 to 7.00 | 5.00 to 6.00 | 6.00 to 7.00 | 5.00 to 6.00 | –
